Experimental data reported in ChEMBL document CHEMBL1155745, “Constituents of the root bark of Severinia buxifolia collected in Hainan” (2001).
In brackets after ≈: the same amount, converted by molar mass. Activity calls are given as the source filed them. No cut-off for these calls is given here.

How the values were obtained:
COLO 205 = assay: Cytotoxicity against human COLO205 cells; format: functional; conditions: for EC50: read-out: ED50 (the source's name)
[1] = (§1) Cytotoxicity against human Hep3B cells; format: functional, Hep 3B2; conditions: read-out: ED50 (the source's name)
KB = assay: Cytotoxicity against human KB cells; format: functional; conditions: for EC50: read-out: ED50 (the source's name)
Hep 3B2 = assay: as §1; format: functional

Which ED50 (COLO 205) does the source give for COc1c(O)ccc2c(=O)c3c(O)cc(O)c(OC)c3n(C)c12 here?
The ED50 was “inactive”.

And the EC50 [1]?
Its EC50 is 5.3 mg/L (≈ 16.7 µM).

What about the EC50 (KB) of the same compound?
Its EC50 is 0.22 mg/L (≈ 0.693 µM).

What does the source list for COc1c(/C=C/C(C)C)c(O)c2c(=O)c3cccc(O)c3[nH]c2c1CC=C(C)C?
EC50 (COLO 205): 1.2 mg/L (≈ 3.05 µM); ED50 (Hep 3B2): inactive; ED50 (KB): inactive

Which results are given for CC(C)=CCc1c2c(c(O)c3c(=O)c4ccccc4[nH]c13)C=CC(C)(C)O2?
EC50 (COLO 205): 0.58 mg/L (≈ 1.6 µM); ED50 (Hep 3B2): inactive; ED50 (KB): inactive

What does the source list for COc1c(O)cc(O)c2c(=O)c3cccc(O)c3n(C)c12 [CITRUSININE-II]?
ED50 (COLO 205): inactive; ED50 (Hep 3B2): inactive; EC50 (KB): 0.82 mg/L (≈ 2.85 µM)

Which results are given for COc1cc(O)c2c(=O)c3cccc(O)c3n(C)c2c1OC [CITRUSININE-I]?
EC50 (COLO 205): 6.3 mg/L (≈ 20.9 µM); EC50 [1]: 6.6 mg/L (≈ 21.9 µM); EC50 (KB): 0.09 mg/L (≈ 0.299 µM)

What does the source list for CC(C)=CCc1c2c(c3[nH]c4ccccc4c(=O)c3c1O)C=CC(C)(C)O2 [SEVERIFOLINE]?
ED50 (COLO 205): inactive; ED50 (Hep 3B2): inactive; EC50 (KB): 0.09 mg/L (≈ 0.249 µM)
